Two compounds from patent publication US12697311B2, “Tetrahydrocurcumin compositions, methods of making, and methods of using the same” (Renibus Therapeutics, Inc., priority 2019, dated 2026) can be followed below.

The data set in a line: Plasma pharmacokinetics after single oral dose in male rats. It is filed as in vivo. The note with it: single 100 mg oral dose; for AUC(0-t) / Cmax / Tmax: rat, plasma, N=3; for AUC(0-t) / Cmax: geometric mean; for Tmax: median. On the procedure: The d6-THCu was formulated at a concentration of 10% w/w in the amounts and ratios provided below:
Compositions were prepared according to the following process. Set up the 5 L jacketed reaction vessel and Julabo circulation heater. Begin heating the Julabo to 90° C. Dispense Phosal 75 SA, Captex 300, and Labrasol ALF (Items 2, 3, and 4) into appropriately sized containers. Add sthe Phosal 75 SA, Captex 300, and Labrasol ALF to the 5 L reaction vessel. Mix contents until visually homogenous and product reaches a temperature of 85° C.±5° C. Add Tetrahydrocurcumin to vessel containing Phosal 75 SA, Captex 300, and Labrasol ALF while stirring. Mix until completely dissolved and visually homogenous. Reduce the Julabo temperature and allow the solution to cool to 30° C.±5° C. while continuing to stir. Package product by adding 50 mL to appropriate 60 mL bottles. Continue until product is exhausted.
The d6-THCu version of the compound provides a desirable release profile compared to non-deuterated THCu. Compositions were prepared using THCu as well as d6-THCu and their pk profiles were compared.
The plasma concentrations of THCu and THCu-d6 was compared by administering single doses of 100 mg to male rats. […] Individual animal pharmacokinetic parameters comparing THCu and d6-THCu is shown in FIG. 4, and statistics for the individual animal pharmacokinetic parameters is shown in FIG. 5.
Graphs of individual animal plasma concentrations versus time are shown in FIGS. 6-7 (linear axes) and FIGS. 8-9 (semi-logarithmic axes).

Entries after “also recorded” stand apart in the source; their conditions may differ.

Turning to `COc1cc(CCC(=O)CC(=O)CCc2ccc(O)c(OC)c2)ccc1O` [THCu, tetrahydrocurcumin], the AUC(0-t) is 38300 ng·h/mL, the Cmax was found to be 4070 ng/mL and the time to peak (Tmax) was 1 h.

For `[2H]C([2H])([2H])Oc1cc(CCC(=O)CC(=O)CCc2ccc(O)c(OC([2H])([2H])[2H])c2)ccc1O` [THCu-d6, d6-Tetrahydrocurumin], the AUC(0-t) is 43000 ng·h/mL, the Cmax amounted to 2820 ng/mL and the Tmax amounted to 24 h. Moreover, for the setting “compared with non-deuterated THCu”, the “plasma concentration versus time / release profile” value is “more stable release profile than the non-deuterated version; also recorded: no burst release of active agent after administration”.

The term AUC(0-t) denotes the area under the concentration-time curve up to a stated or last time point. The term Cmax denotes the maximum level reached in the sampled fluid or tissue. What is called Tmax is the time from dosing to the highest level.
